Entries after “also recorded” stand apart in the source; their conditions may differ.
Assays:
[1] = system: HSC-2 human oral cancer cell line; assay: MTT cell proliferation/viability assay; type: cell-based
[2] = biological target: T1, Human recombinant PNMT (Homo sapiens, UniProt P11086); assay: PNMT selectivity assay; type: biochemical
T1 sequence (P11086 1-282): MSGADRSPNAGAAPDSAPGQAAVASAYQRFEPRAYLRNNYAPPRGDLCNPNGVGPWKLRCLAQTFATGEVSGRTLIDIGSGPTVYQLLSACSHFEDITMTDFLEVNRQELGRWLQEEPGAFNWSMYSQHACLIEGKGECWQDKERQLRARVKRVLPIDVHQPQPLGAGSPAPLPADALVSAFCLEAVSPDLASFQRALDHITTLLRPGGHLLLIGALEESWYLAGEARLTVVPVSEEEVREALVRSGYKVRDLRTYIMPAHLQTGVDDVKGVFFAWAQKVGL

[3] = biological target: DOT1L (Homo sapiens, UniProt Q8TEK3); assay: Methyltransferase selectivity assay; type: biochemical
DOT1L, sequence (Q8TEK3 whole entry, species assumed): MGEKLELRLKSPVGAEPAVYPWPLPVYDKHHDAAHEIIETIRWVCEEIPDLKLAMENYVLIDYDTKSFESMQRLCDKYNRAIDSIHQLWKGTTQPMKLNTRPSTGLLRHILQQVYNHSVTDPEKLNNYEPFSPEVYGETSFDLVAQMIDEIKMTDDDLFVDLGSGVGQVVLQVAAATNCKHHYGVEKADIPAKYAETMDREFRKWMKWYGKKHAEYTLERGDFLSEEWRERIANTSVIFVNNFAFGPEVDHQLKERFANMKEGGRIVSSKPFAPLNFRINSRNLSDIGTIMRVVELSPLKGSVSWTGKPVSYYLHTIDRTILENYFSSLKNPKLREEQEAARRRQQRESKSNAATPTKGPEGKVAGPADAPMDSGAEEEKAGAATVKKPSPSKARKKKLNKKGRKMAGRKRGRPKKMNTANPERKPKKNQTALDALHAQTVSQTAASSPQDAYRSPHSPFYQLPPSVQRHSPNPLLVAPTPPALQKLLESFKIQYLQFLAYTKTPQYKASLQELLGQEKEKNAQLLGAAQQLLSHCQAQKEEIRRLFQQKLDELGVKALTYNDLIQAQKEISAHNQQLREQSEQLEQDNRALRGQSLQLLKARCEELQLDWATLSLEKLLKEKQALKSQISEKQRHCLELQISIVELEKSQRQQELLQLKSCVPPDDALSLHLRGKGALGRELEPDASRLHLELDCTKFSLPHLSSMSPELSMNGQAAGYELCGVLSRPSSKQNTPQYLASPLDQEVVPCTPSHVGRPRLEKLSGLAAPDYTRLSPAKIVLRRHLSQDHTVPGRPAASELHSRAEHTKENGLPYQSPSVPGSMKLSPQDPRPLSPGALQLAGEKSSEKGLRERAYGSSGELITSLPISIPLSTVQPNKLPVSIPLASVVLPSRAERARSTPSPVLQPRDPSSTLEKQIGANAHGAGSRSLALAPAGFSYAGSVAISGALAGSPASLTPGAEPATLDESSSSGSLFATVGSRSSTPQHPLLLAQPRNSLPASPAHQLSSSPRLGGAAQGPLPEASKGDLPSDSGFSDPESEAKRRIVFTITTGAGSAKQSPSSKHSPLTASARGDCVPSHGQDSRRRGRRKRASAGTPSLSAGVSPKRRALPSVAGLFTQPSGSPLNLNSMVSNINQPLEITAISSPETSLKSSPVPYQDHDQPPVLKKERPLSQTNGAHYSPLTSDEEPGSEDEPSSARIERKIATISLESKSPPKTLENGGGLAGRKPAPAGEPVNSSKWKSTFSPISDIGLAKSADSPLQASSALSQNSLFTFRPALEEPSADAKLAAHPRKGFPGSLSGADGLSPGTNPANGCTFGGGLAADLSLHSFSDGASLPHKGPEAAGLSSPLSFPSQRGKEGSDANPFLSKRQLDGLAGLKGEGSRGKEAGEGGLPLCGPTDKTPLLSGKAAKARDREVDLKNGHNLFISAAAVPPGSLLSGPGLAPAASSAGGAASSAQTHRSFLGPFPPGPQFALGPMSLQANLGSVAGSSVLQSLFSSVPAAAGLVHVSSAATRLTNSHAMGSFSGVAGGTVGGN

[4] = biological target: PRMT5 (Homo sapiens, UniProt O14744); assay: Methyltransferase selectivity assay; type: biochemical
PRMT5, sequence (O14744 whole entry, species assumed): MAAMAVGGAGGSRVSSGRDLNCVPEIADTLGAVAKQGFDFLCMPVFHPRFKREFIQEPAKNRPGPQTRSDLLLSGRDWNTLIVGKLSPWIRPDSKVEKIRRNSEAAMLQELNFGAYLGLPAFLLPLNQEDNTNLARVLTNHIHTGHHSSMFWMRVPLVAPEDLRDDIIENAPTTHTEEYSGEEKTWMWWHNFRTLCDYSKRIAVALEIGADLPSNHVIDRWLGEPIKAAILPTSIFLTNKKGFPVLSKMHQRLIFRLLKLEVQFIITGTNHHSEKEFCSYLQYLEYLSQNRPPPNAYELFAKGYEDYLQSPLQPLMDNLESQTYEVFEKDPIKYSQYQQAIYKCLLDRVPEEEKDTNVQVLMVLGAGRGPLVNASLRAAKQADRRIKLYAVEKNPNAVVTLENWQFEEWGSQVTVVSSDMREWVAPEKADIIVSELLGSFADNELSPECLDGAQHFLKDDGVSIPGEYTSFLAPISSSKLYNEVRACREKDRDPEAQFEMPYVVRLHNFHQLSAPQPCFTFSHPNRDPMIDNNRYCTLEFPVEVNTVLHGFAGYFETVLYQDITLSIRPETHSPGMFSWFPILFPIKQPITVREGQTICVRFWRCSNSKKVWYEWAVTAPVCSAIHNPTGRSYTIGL
PRMT5, sequence (Q9BQA1 whole entry partner, species assumed): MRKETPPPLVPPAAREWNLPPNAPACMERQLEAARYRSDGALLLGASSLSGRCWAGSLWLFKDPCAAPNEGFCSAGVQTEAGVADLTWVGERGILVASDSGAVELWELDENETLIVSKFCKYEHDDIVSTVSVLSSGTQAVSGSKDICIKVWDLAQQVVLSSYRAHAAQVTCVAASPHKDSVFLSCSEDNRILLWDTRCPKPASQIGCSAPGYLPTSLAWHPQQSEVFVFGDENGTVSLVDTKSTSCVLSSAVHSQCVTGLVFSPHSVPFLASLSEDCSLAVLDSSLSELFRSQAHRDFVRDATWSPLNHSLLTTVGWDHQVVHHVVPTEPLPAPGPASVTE

[5] = system: T24 human bladder cancer cell line; assay: MTT cell proliferation/viability assay; type: cell-based
[6] = biological target: T2, PRMT4/CARM1 (Homo sapiens, UniProt Q86X55); assay: PRMT4/CARM1 methyltransferase inhibition assay; type: biochemical; settings: 3.7, 11.1, 33.3, and 100 μM
T2 sequence (Q86X55 1-608): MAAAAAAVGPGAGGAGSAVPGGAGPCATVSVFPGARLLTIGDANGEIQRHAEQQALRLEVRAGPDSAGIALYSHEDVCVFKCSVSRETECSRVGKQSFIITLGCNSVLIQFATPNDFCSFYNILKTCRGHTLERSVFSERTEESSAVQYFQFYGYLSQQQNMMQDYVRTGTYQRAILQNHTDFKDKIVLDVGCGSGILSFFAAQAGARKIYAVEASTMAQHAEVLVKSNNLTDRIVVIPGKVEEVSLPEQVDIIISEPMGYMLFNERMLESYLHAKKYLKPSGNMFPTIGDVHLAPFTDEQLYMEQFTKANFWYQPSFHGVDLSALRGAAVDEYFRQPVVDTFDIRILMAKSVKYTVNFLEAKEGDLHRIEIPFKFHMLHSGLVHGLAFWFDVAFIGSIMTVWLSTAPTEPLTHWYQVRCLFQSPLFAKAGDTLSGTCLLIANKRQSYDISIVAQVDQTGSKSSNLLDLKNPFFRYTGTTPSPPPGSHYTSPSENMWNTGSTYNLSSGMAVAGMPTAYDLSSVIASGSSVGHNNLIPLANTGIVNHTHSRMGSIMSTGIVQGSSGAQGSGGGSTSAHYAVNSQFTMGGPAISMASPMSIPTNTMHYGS

[7] = biological target: SMYD2 (Homo sapiens, UniProt Q9NRG4); assay: Methyltransferase selectivity assay; type: biochemical
SMYD2, sequence (Q9NRG4 whole entry, species assumed): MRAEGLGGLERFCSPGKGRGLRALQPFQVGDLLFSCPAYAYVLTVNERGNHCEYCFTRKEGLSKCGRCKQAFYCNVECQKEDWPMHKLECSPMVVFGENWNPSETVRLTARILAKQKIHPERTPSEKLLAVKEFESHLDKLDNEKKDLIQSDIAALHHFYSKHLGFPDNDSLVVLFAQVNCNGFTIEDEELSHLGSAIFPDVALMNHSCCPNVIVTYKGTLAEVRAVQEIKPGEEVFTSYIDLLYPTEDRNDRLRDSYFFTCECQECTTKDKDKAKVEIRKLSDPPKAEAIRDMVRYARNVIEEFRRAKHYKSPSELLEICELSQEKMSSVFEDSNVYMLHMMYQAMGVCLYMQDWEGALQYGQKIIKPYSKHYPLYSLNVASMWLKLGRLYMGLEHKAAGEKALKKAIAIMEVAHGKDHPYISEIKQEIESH

[8] = system: A549 human lung cancer line; assay: MTT cell proliferation/viability assay; type: cell-based
[9] = Parallel artificial membrane permeability assay; type: in vitro ADME; settings: PAMPA
[10] = lower concentrations tested (from 1 μM)

PNMT inhibition at the concentrations tested ([2]; 1 and 10 μM): less than 50%
inhibitory activity against PNMT lower than against NNMT ([2]; selectivity NNMT over PNMT): more than 3000 fold
DOT1L activity of the compound (in words) ([3]; 1 μM): no appreciable activity
inhibition at 10 µM ([3]; read-out: DOT1L inhibition): > 50%
PRMT5 activity of the compound (in words) ([4]; 1 μM): no appreciable activity
inhibition at 10 µM ([4]; read-out: PRMT5 inhibition): > 50%
PRMT4/CARM1 inhibition at the concentrations tested [6]: no inhibition was observed
activity at 1 µM ([7]; read-out: SMYD2 Average Activity (%) 1µM): 39%
activity at 10 µM ([7]; read-out: SMYD2 Average Activity (%) 10µM): 19%
higher potency toward NNMT (than SMYD-2) ([7]; selectivity NNMT over SMYD-2): > 100 fold
Structure (SMILES): N#Cc1ccc(/C=C/CN(CC[C@H](N)C(=O)O)C[C@H]2O[C@@H](n3cnc4c(N)ncnc43)[C@H](O)[C@@H]2O)cc1 [Compound 17u, (S)-2-Amino-4-((((2R,3S,4R,5R)-5-(6-amino-9H-purin-9-yl)-3,4-dihydroxytetrahydrofuran-2-yl)methyl)((E)-3-(4-cyanophenyl)allyl)amino)butanoic Acid]
effect on cell viability, HSC-2 ([1]; 100 μM, MTT, 24, 48 and 72 h): clear inhibition of the cell viability; also recorded: significant decrease in cell viability
effect on cell viability, HSC-2 [1, 10]: absent
effect on cell viability, T24 ([5]; 100 μM, MTT, 24, 48 and 72 h): clear inhibition of the cell viability; also recorded: significant decrease in cell viability
effect on cell viability, T24 [5, 10]: absent
effect on cell viability, A549 ([8]; 100 μM, MTT, 24, 48 and 72 h): clear inhibition of the cell viability; also recorded: significant decrease in cell viability
effect on cell viability, A549 [8, 10]: absent
cell permeability (in words) [9]: very poor cell permeability; also recorded: poor cell permeability

Reference: article PMC8436214 (Journal of Medicinal Chemistry, 2021)
